Values joined by “and” are separate entries in the source; they are usually repeats but may differ in a detail not shown here. Equal entries are not always repeated. “Also recorded” adds a separate entry of the source. Where two headings read alike, the source gives them in different places.
Assays:
[1] = test system: human small intestinal epithelial cells (HSEIC); conditions: for cell viability (MTT absorbance at 595 nm): vs vehicle control, doses given with the value; for Long-Term Cytotoxicity / Short-Term Cytotoxicity: MTT in HSEIC, N/A = no cytotoxicity seen; for Long-Term Cytotoxicity: doses cytotoxic after long exposure; for Short-Term Cytotoxicity: doses cytotoxic after short exposure; for cytotoxic effects overall (MTT): over all doses and time points tested (24-96 h), or time not stated
[2] = test system: IL-6; format: cell-based, human; conditions: cotreatment experiments (Figures 7-15), single and combined doses given with the value; vs TNF-α/IFN-γ group
[3] = test system: COX-2; test: Western blot of COX-2 protein in TNF-α/IFN-γ-treated HSEIC; format: cell-based, human; conditions: for COX-2 protein levels relative to GAPDH: cotreatment experiments (Figures 7-15), single and combined doses given with the value
[4] = test system: dextran sulfate sodium-induced colitis; set-up: method as in PMID 34478286; conditions: 20 mg/kg, consumed orally for 17 days; cited from earlier work
[5] = test system: porcine intestinal epithelial cells; set-up: method as in PMID 32735667; conditions: pretreatment with 100 μM; cited from earlier work
[6] = single ligands (Figure 6), vs TNF-α/IFN-γ group, doses given with the value

| Structure (SMILES) | cell viability (MTT absorbance at 595 nm) ([1]; 24 h exposure) | cell viability (MTT absorbance at 595 nm) ([1]; 48 h exposure) | cell viability (MTT absorbance at 595 nm) ([1]; 72 h exposure) | cell viability (MTT absorbance at 595 nm) ([1]; 96 h exposure) | IL-6 protein levels relative to GAPDH [2] | Fold Change of COX-2 [3] [×] | Most Effective Dose [3] [µM] | COX-2 protein levels relative to GAPDH ([3]; vs TNF-α/IFN-γ group) | normalized COX-2 levels (COX-2/GAPDH) [3, 6] | Long-Term Cytotoxicity [1] [µM] | Short-Term Cytotoxicity [1] [µM] | cytotoxic effects overall (MTT) [1] | COX-2 levels decreased by [3] [×] | also measured |
| --- | --- | --- | --- | --- | --- | --- | --- | --- | --- | --- | --- | --- | --- | --- |
| CC(=O)Oc1cccc2[nH]cc(CCN(C)C)c12 [4-AcO-DMT, 4-Acetoxy-N,N-dimethyltryptamine] | doses of 10, 20, 40, 80, and 160 μM significantly increased the cell viability | doses of 10, 20, 40, 80, and 160 μM significantly increased the cell viability | 5 (p < 0.01), 10 (p < 0.0001), 20 (p < 0.01), 40, 80, and 100 μM (p < 0.0001) significantly increased the cell viability | all doses significantly increased (p < 0.0001) the cell viability | significantly reduced only in the 20 μM of 4-AcO-DMT combined with 25 μM of Eug, 40 μM of 4-AcO-DMT, and 40 μM of 4-AcO-DMT combined with 25 μM of Eug groups; also recorded: IL-6 was upregulated in the 10 μM of 4-AcO-DMT, 25 μM of Eug, 10 μM of 4-AcO-DMT combined with 25 μM of Eug, and 20 μM of 4-AcO-DMT group | −1.5 | 20 | only the combination of 20 μM of 4-AcO-DMT with 0.5 μM of Cap and 40 μM of 4-AcO-DMT significantly reduced the COX-2 levels; also recorded: significantly reduced in the 10 μM of 4-AcO-DMT, 25 μM of Eug, 20 μM of 4-AcO-DMT combined with 25 μM of Eug, 40 μM of 4-AcO-DMT, and 40 μM of 4-AcO-DMT combined with 25 μM of Eug groups | significant decrease in the relative COX-2 levels at the concentrations of 10 (p < 0.01), 20 (p < 0.0001), and 40 μM and 5 μM significantly increased relative COX-2 levels |  |  |  |  |  |
| COc1cc(CNC(=O)CCCC/C=C/C(C)C)ccc1O [Cap, capsaicin] | 50 μM after 24 h (p < 0.05), 100 μM after 24 and 48 h (p < 0.05), and 200 μM after 24 h (p < 0.01) and 48 h (p < 0.0001) significantly decreased the cell viability | 50 μM after 24 h (p < 0.05), 100 μM after 24 and 48 h (p < 0.05), and 200 μM after 24 h (p < 0.01) and 48 h (p < 0.0001) significantly decreased the cell viability |  |  |  | −1.6 | 0.5 | effectively reduced COX-2 levels | a reduction in COX-2 levels was observed only at a dose of 0.5 μM; also recorded: both 0.1 and 1 μM showed a trend towards decreased normalized COX-2/GAPDH levels | ≥0.5 | ≥50 | did not demonstrate significant cytotoxicity in either the short- or long-term doses tested |  |  |
| COc1cc(/C=C/C(=O)CC(=O)/C=C/c2ccc(O)c(OC)c2)ccc1O [Cur, curcumin] |  | cytotoxic effects across all doses | cytotoxic effects across all doses | cytotoxic effects across all doses |  |  | 0.5 |  |  | ≥1 | ≥5 | most substantial and severe decreases in cell viability were observed at 20, 40, and 80 μM | 3.8 | Long-Term Cytotoxicity ([1]; listed as Curcumin): ≥ 1 µM; Short-Term Cytotoxicity ([1]; listed as Curcumin): ≥ 5 µM; normalized COX-2 levels (COX-2/GAPDH) [3]: Psi (40 μM), Cur (0.5 μM), and Eug (50 μM) significantly reduced COX-2 levels without cytotoxic effects; also recorded: significantly reduced normalized COX-2 levels at concentrations of 0.5 (p < 0.0001), 2.5 (p < 0.01), 5, and 10 μM |
| C=CCc1ccc(O)c(OC)c1 [Eug, eugenol] | 10 (p < 0.01), 100 (p < 0.05), 200 (p < 0.01), 400 (p < 0.001), and 800 (p < 0.0001) μM of eugenol decreased the cell viability | exposure to 50 (p < 0.001), 100 (p < 0.001), 200 (p < 0.0001), 400 (p < 0.0001), and 800 μM (p < 0.0001) for 48 h significantly reduced the cell viability | only 200 (p < 0.001), 400 (p < 0.0001), and 800 μM (p < 0.0001) of eugenol significantly reduced the cell viability | all doses reduced the cell viability | IL-6 was upregulated in the 10 μM of 4-AcO-DMT, 25 μM of Eug, 10 μM of 4-AcO-DMT combined with 25 μM of Eug, and 20 μM of 4-AcO-DMT group | −3.8 |  | significantly reduced in the 10 μM of 4-AcO-DMT, 25 μM of Eug, 20 μM of 4-AcO-DMT combined with 25 μM of Eug, 40 μM of 4-AcO-DMT, and 40 μM of 4-AcO-DMT combined with 25 μM of Eug groups | Psi (40 μM), Cur (0.5 μM), and Eug (50 μM) significantly reduced COX-2 levels without cytotoxic effects | ≥10 | ≥10 | demonstrated both short-term and long-term cytotoxic effects | 3.8 | Long-Term Cytotoxicity ([1]; listed as Eugenol): ≥ 10 µM; Short-Term Cytotoxicity ([1]; listed as Eugenol): ≥ 10 µM; pathological scores [4]: reduced the pathological scores; Most Effective Dose ([3]; dose most effective in lowering COX-2 (and IL-6) in TNF-α/IFN-γ-treated HSEIC): 50 µM; normalized COX-2 levels (COX-2/GAPDH) ([3]; single ligands (Figure 6), vs TNF-α/IFN-γ group, doses given with the value, listed as eugenol): remarkable efficacy in reducing the normalized COX-2 levels at all tested concentrations; LPS-induced IL-8 and TNF-α transcript levels [5]: significantly suppress the LPS-induced IL-8 and TNF-α transcript levels |
| O=C(c1ccc(F)cc1)C1CCN(CCn2c(=O)[nH]c3ccccc3c2=O)CC1 [Ket, ketanserin] |  |  |  |  |  |  | 1 |  | Only 1 (p < 0.0001) and 10 μM (p < 0.01) of ketanserin significantly lowered COX-2 levels and 20 μM of ketanserin led to a significant increase in the normalized COX-2 levels and higher doses significantly increased COX-2 levels |  |  |  |  |  |
| CN(C)CCc1c[nH]c2cccc(OP(=O)(O)O)c12 [Psi, psilocybin] | significantly increased the number of viable cells at doses of 20 (p < 0.001), 40, 80, and 160 μM | increased the cell viability at 20 (p < 0.01), 40 (p < 0.001), 80, and 160 μM |  | 80 (p < 0.05) and 160 μM (p < 0.0001) of psilocybin for 96 h significantly increased the cell viability | 20 μM psilocybin and 10 μM psilocybin combined with 0.5 μM curcumin showing the most significant reductions and the 10 μM psilocybin treatment group, which significantly upregulated the IL-6 levels | −3.8 | 40 | effectively reduced COX-2 levels and 40 μM psilocybin all significantly decreased the COX-2 levels | Psi (40 μM), Cur (0.5 μM), and Eug (50 μM) significantly reduced COX-2 levels without cytotoxic effects |  |  |  |  | normalized COX-2 levels (COX-2/GAPDH) ([3]; single ligands (Figure 6), vs TNF-α/IFN-γ group, doses given with the value, listed as Psilocybin): significant reductions in the normalized COX-2 levels across all concentrations tested (5, 10, 20, and 40 μM) |
